Measured values: PubChem BioAssay (NCI)
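Five concentrations, 48 hours, 96-well plates. GI50: concentration for 50% inhibition of growth. TGI: concentration producing complete growth inhibition.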

Assays:
Experiment in all cases: NCI anticancer screen, dose series, 48 h
[1] = test system: DU-145 prostate
[2] = test system: HL-60(TB) leukemia
[3] = test system: KM12 colon
[4] = test system: MDA-MB-231 breast
[5] = test system: SF-295 CNS
[6] = test system: SK-MEL-5 melanoma
[7] = test system: T-47D breast
[8] = test system: U251 CNS
[9] = test system: K-562 leukemia

SMILES	TGI [1]	TGI [2]	TGI [3]	TGI [4]	TGI [5]	TGI [6]	TGI [7]	TGI [8]	TGI [9]	GI50 [1]	GI50 [2]	GI50 [9]	GI50 [3]	GI50 [4]	GI50 [5]	GI50 [6]	GI50 [7]	GI50 [8]
O=C(Oc1cc(=O)c(OC(=O)c2ccccc2)co1)c1ccccc1	> 100 µM	> 100 µM	> 100 µM	> 100 µM	> 100 µM	> 100 µM	> 100 µM	> 100 µM										
CC1CN=C(N(C(=O)Nc2ccc(F)c(Cl)c2)c2ccccc2)S1 (stereo not given)	> 100 µM		78.3 µM	38.9 µM	> 100 µM	30 µM	> 100 µM	50.5 µM	> 100 µM									
Cc1ccc(CC[P+](=O)CCc2ccc(C)nc2)cn1	> 100 µM	> 100 µM	> 100 µM	> 100 µM	> 100 µM	> 100 µM	> 100 µM	> 100 µM	> 100 µM									
COc1ccc(-c2c3c([nH]c(=S)c2C#N)CC(C)(C)CC3=O)cc1	> 100 µM	> 100 µM	> 100 µM	> 100 µM	> 100 µM	> 100 µM	> 100 µM	> 100 µM	> 100 µM									
C=C1c2cc3c(cc2CC12Cc1cc4c(cc1C2=O)CCC4)CCC3 (stereo not given)	> 100 µM	> 100 µM		> 100 µM	> 100 µM	> 100 µM	> 100 µM	> 100 µM	> 100 µM									
CNc1ncnc2c1cnn2COCC(O)CO (stereo not given)	> 100 µM		> 100 µM	> 100 µM	> 100 µM	> 100 µM	> 100 µM	> 100 µM	> 100 µM									
C[C@@H](Cl)[C@H]1CCCN(Cc2ccc(Br)cc2)C1	> 12.5 µM	> 12.5 µM	> 12.5 µM	> 12.5 µM	> 12.5 µM	> 12.5 µM	> 12.5 µM	> 12.5 µM	> 12.5 µM									
CCOC(=O)c1nc2ccc(C(F)(F)F)cc2nc1Oc1ccc(C#N)cc1	38.1 µM	> 100 µM	> 100 µM	27.9 µM	31.5 µM	> 100 µM	> 100 µM	61.1 µM	> 100 µM									
C[C@@H]1S[C@H](c2ccccc2F)N2Cc3ccccc3N=C12	> 100 µM	52.3 µM	> 100 µM	> 100 µM	> 100 µM	32.5 µM	91.4 µM	> 100 µM	65.9 µM									
C/C1=C\CC[C@@]2(C)O[C@@H]2C[C@@H](C2(C)CO2)CC/C(C)=C/CC1 (stereo not given in full)	48.8 µM	71.9 µM	34.3 µM	47.3 µM	51 µM	47.1 µM	78.3 µM	29.6 µM	> 100 µM									
C(/C=C(\Nc1ccccc1)C12CC3CC(CC(C3)C1)C2)=Nc1ccccc1	56.7 µM	32.1 µM	35.2 µM	34.1 µM	36.5 µM	28 µM	99.6 µM	31.7 µM	35.1 µM									
Cc1cc2c([N+](=O)[O-])cc3c(c2o1)C(=O)C=CC3=O	> 52.3 µM		32.2 µM	40.2 µM	23 µM	28.1 µM	> 22.1 µM	33.1 µM	> 100 µM									
O=C(Nc1ccccc1F)c1cc2ccc(O)cc2oc1=Nc1ccccc1F	3.75 µM	4.54 µM	5.37 µM		8.48 µM	3.85 µM	4.63 µM	3.63 µM	7.64 µM									
O=C(NCCCN(CCCCN(CCCNC(=O)C(F)(F)F)Cc1ccc2ccccc2c1)Cc1ccc2ccccc2c1)C(F)(F)F	> 100 µM		> 100 µM	> 100 µM	> 100 µM	3.38 µM	> 100 µM	> 100 µM	7.34 µM									
COc1ccc(S(=O)(=O)N2C(=O)CCC2C(=O)NN)cc1 (stereo not given)	> 100 µM	> 100 µM	> 100 µM	> 100 µM	> 100 µM	> 100 µM	> 100 µM	> 100 µM	> 100 µM									
COc1cc(-c2cc(=O)c3cc4c(=O)cc(-c5cc(OC)c(OC)c(OC)c5)oc4cc3o2)cc(OC)c1OC	> 100 µM	> 100 µM	> 100 µM	> 64.5 µM	40.6 µM	> 100 µM	> 100 µM	23.4 µM	> 56 µM									
Cc1cn(-c2cc(C(=O)Nc3cccc(-n4ccc5c(NC(=O)c6ccccc6)nccc54)c3)cc(C(F)(F)F)c2)cn1	2.2 µM	2.5 µM	1.46 µM	3.62 µM	1.44 µM	0.76 µM	24.2 µM	1.48 µM		0.525 µM	0.451 µM	0.292 µM	0.372 µM	0.68 µM	0.306 µM	0.195 µM	1.9 µM	0.29 µM
CC(C)(C)OC(=O)NCCC(N)=S	> 100 µM	> 100 µM	> 100 µM		> 100 µM	> 100 µM	> 100 µM	> 100 µM	> 100 µM									
N#CCc1nc(-c2ccccc2)n[nH]1	> 100 µM	> 100 µM	> 100 µM	> 100 µM	> 100 µM	> 100 µM	> 100 µM		> 100 µM									
NCCCN1CCN(CCCNc2ccc3nnn4c5ccccc5c(=O)c2c34)CC1	57.6 µM	> 100 µM		29.1 µM	45.2 µM	32.1 µM	> 100 µM	> 100 µM	> 100 µM									
C[C@]12CC[C@@H]3c4ccc(O)cc4CC[C@H]3[C@@H]1C/C(=C\c1ccncc1)[C@@H]2O	> 100 µM	44.9 µM	62.2 µM	41.2 µM	70.2 µM	17.3 µM	13.8 µM	39.6 µM										
CCCCn1cnc2c(c(CC#N)nn2-c2ccccc2)c1=N	> 100 µM	> 100 µM	> 100 µM	> 100 µM	> 100 µM	46.7 µM	> 100 µM	> 100 µM	> 100 µM									
CC1(C)C2CC(=O)C1(C)C(O)C2Br (stereo not given)	> 100 µM	> 100 µM	> 100 µM	> 100 µM	> 100 µM	> 100 µM	> 100 µM	> 100 µM	> 100 µM									
COc1nc2ncc([C@@H](OC(C)=O)[C@@H](COC(C)=O)OC(C)=O)nc2c(=O)[nH]1	> 100 µM	> 100 µM	> 100 µM	> 100 µM	> 100 µM	> 100 µM	> 100 µM	> 100 µM	> 100 µM									

SMILES	TGI [1]	TGI [2]	TGI [3]	TGI [4]	TGI [5]	TGI [6]	TGI [7]	TGI [8]	TGI [9]	GI50 [1]	GI50 [2]	GI50 [9]	GI50 [3]	GI50 [4]	GI50 [5]	GI50 [6]	GI50 [7]	GI50 [8]
O=C(O)c1cc(-c2ccc3c(O)c(O)ccc3c2)ccc1O	> 75 µM	53.5 µM	> 75 µM	54.1 µM	29.1 µM	> 75 µM	> 75 µM	26.1 µM	32.2 µM									
S=c1[nH]c2ccc(Br)cc2c(=S)s1	> 100 µM	62.4 µM	> 100 µM	63.7 µM	85.1 µM	37.8 µM	73.9 µM	54.8 µM	> 100 µM									
CC(=O)c1cccn1/C=C(\OC(=O)OC(C)(C)C)c1ccc[nH]1	> 100 µM	98.1 µM	> 100 µM	> 100 µM	> 100 µM	> 100 µM	> 100 µM	> 100 µM	> 100 µM									
Cc1cc(-c2nc3ccccc3s2)ccc1NC(=O)[C@@H](N)CCCCN	25.2 µM		8.03 µM	25.3 µM	10.6 µM	28 µM	1.14 µM	9.88 µM	> 54 µM									
S=C(/N=c1\sc(Nc2ccc(Cl)cc2)nc2sc3c(c12)CCN(N1CCc2c(sc4nc(Nc5ccc(Cl)cc5)s/c(=N\C(=S)Nc5ccc(Cl)cc5)c24)C1)C3)Nc1ccc(Cl)cc1	64.6 µM			35.1 µM	> 100 µM			61.9 µM										
CCc1c[n+]([O-])c(C)cc1[N+](=O)[O-]	> 100 µM	> 100 µM	> 100 µM	80.7 µM	> 100 µM	> 100 µM	> 100 µM	> 100 µM	> 100 µM									
NC(CC1=CS(=O)(=O)c2ccc(Cl)cc21)C(=O)O (stereo not given)	> 100 µM		> 100 µM	> 100 µM	> 100 µM	> 100 µM	> 100 µM	> 100 µM	> 100 µM									
CCOC(=O)C1(C(=O)OCC)COS(=O)OC1	> 100 µM		> 100 µM	35.3 µM	> 100 µM	> 100 µM	50.8 µM	> 100 µM	> 100 µM									
CN(Cc1ccccc1)c1cc(=O)n(C)c(=O)[nH]1	> 100 µM	> 100 µM		> 100 µM	> 100 µM	> 100 µM	> 100 µM	> 100 µM	> 100 µM									
CC(=O)Oc1cc(C(F)(F)F)ccc1C(=O)OC1(C)OC(=O)c2ccc(C(F)(F)F)cc2O1 (stereo not given)	> 100 µM	> 100 µM	> 100 µM	> 100 µM	> 100 µM		> 100 µM	> 100 µM	> 100 µM									
O=C(O)C(SC1=NNC2(C(=O)N1)c1ccccc1-c1ccccc12)SC1=NNC2(C(=O)N1)c1ccccc1-c1ccccc12	> 10 µM	> 10 µM	> 10 µM	> 10 µM	> 10 µM	> 10 µM	> 10 µM	> 10 µM	> 10 µM									
N/C(=N\S(=O)(=O)c1c(C(F)(F)F)cccc1C(F)(F)F)Nc1ccc(Cl)cc1	> 100 µM	51.9 µM	> 100 µM	48.6 µM	> 100 µM	35.6 µM	> 100 µM	36 µM	> 100 µM									
Nc1nc(Cl)cc(NCC2(CO)CCC(CCc3ccccc3)C2)n1 (stereo not given)	30.2 µM	33.1 µM	30.1 µM	33.6 µM	21.8 µM	15.6 µM	30.6 µM	31.1 µM	41.6 µM									
Oc1[nH]c2ccc(Br)cc2c1N=NC(=S)Nc1ccc(F)cc1	22.3 µM	6.84 µM	30.5 µM	35.5 µM	21.8 µM	24.7 µM	35.4 µM	18.5 µM	67.3 µM									
CC[n+]1[b-](C(C)(C)C)n(/N=C/C(C)(C)C)[b-](C(C)(C)C)[n+]1CC			> 100 µM	> 100 µM	> 100 µM	> 100 µM	> 100 µM	> 100 µM	> 100 µM									
O=[N+]([O-])c1ccc(/C=C/c2cc(-c3ccccc3)nc3ccc4ccccc4c23)cc1	> 100 µM	> 100 µM	> 100 µM	> 100 µM	> 100 µM	> 100 µM		> 100 µM	> 100 µM									
O=C(CNc1c(Cl)cccc1Cl)NC1C=Cc2ccc(S(=O)(=O)Nc3c(Cl)cccc3Cl)cc2C1=O (stereo not given)	> 100 µM	> 100 µM	> 100 µM	> 100 µM	> 100 µM			> 100 µM	> 100 µM									
Cc1ccc(OCCn2cc(Nc3ccccc3)c(=O)n(CCOc3ccc(C)cc3)c2=O)cc1	> 100 µM		> 100 µM	> 100 µM	> 100 µM	> 100 µM	> 100 µM	> 100 µM	> 100 µM									
C(=Nc1ccc(-c2nc3ccccc3o2)cc1)c1ccco1	> 100 µM					> 100 µM	> 100 µM											
O=C1NCC(NC(=O)C(F)(F)F)c2c(Br)sc(Br)c21 (stereo not given)	> 100 µM		> 100 µM	> 100 µM	> 100 µM	> 100 µM	> 100 µM	> 100 µM	> 100 µM									
N=C(N)c1ccc(-c2ccc(-c3cccs3)s2)cc1	3.14 µM			3.28 µM		2.99 µM				1.68 µM				1.64 µM		1.6 µM		
CC(C)=CCC/C(C)=C/COC(C)(C)C1=CCC(C)CC1 (stereo not given) (tested in a mixture with another compound)	> 100 µM	50.9 µM	> 100 µM		> 100 µM	> 100 µM		> 100 µM										
O=c1[nH]cnc2c1ncn2[C@@H]1C[C@@H]1CO	> 100 µM	> 100 µM	> 100 µM	> 100 µM		> 100 µM	> 100 µM	> 100 µM	> 100 µM									
O=C(NC(COC(=O)C(Cc1ccccc1)NC(=O)c1ccccc1)Cc1ccccc1)c1ccccc1 (stereo not given)		> 50 µM	> 50 µM		> 50 µM			> 50 µM	> 50 µM									
